Data on 1 compound can be found in patent publication US20240277715A1, “COMBINATION THERAPIES COMPRISING A METTL3 INHIBITOR AND A FURTHER ANTICANCER AGENT” (Storm Therapeutics Limited, priority 2021, published 2024).

Assay [1] relates to CT26 mouse colorectal cancer. Briefly: Subcutaneous CT26 colorectal cancer syngeneic model, anti-tumour efficacy. The class given is in vivo. The settings on record: 10 per group. An excerpt: (§1) The in vivo effect of METTL3 inhibition in combination with anti-PD1 immune checkpoint inhibitor was investigated using syngeneic mouse tumour models in immune-competent hosts. Mouse tumour models can be grown in appropriate host strains and are widely used to investigate the effects of therapeutic agents on the immune system and cancer growth. There are a limited range of mouse syngeneic tumour models available, far fewer than human cell lines, and they are widely used in the art to support potential clinical utility of immune stimulatory approaches across multiple indications. We exemplify the potential role of STM3480 and combinations with immune checkpoint inhibitors such as anti-PD-1 antibodies in multiple tumour models including A20 (murine B cell lymphoma), EMT-6 (murine breast cancer) and CT-26 (murine colorectal cancer).
The objective of this study is to assess the anti-tumour efficacy of STM3480 in combination with anti-PD1 in subcutaneous CT26 mouse colorectal cancer model in female BALB/c mice. CT26.WT (CRL-2638) mouse […] cells were cultured in (RPMI—1640+10% FBS+2 mM L-Glutamine) media. […]
(§2) Tumours were measured three times a week and tumour volumes estimated using the formula 0.5 (L×W^2) by measuring the tumour in two dimensions using electronic callipers for the duration of the study. […]

Assay [2] has as its system EMT6 mouse breast cancer. Briefly: Subcutaneous EMT6 breast cancer syngeneic model, anti-tumour efficacy. The class given is in vivo. The settings on record: 10 per group.
Excerpt: as §1
The objective of this study is to assess the anti-tumour efficacy of STM3480 in combination with anti-PD1 in subcutaneous EMT6 mouse breast cancer model in female BALB/c mice.
EMT6 (#ATCC CRL-2755) mouse breast cancer cells were cultured in (Waymouth's MB 752/1 Medium with 2 mM L-glutamine, 85%; foetal bovine serum (non-heat inactivated), 15%) media. […]
as §2

Each structure is given as a SMILES string.

For `O=C(NCc1ccc2cc(CNCC3CCC3)[nH]c2c1)c1cc(=O)n2ccccc2n1` [STM3480, N-[(2-{[(cyclobutylmethyl)amino]methyl}-1H-indol-6-yl)methyl]-4-oxo-4H-pyrido[1,2-a]pyrimidine-2-carboxamide], the “Mean tumour volume d28” value in assay [1] (CT26, female BALB/c mice, STM3480 50 mg/kg p.o., anti PD1 10 mg/kg i.p. BIW, up to 3 weeks) is given as 768 mm3. Besides, the “No. mice with regressions” value in assay [1] (CT26) is given as 0. In addition, the “Mean tumour volume d21” value in assay [2] (EMT6, female BALB/c mice, STM3480 50 mg/kg p.o., anti PD1 10 mg/kg i.p. BIW, up to 3 weeks) is on record as 141 mm3. In assay [2] (EMT6), the “No. mice with complete regressions” value came to 1.
